According to PubChem BioAssay AID248 (DTP/NCI, 2004):
“And” between values parts separate entries of the source, which are not always exact repeats. Identical values can stand only once. Inconclusive results and toxic doses are left out. Cut-off read from the data, not from the text of the source: active = T/C of 150% or more; inactive = T/C below 125%. Square brackets hold non-standard residues; d marks the D form. Peptide text beside a SMILES is read from it. * marks the point of attachment. ξ: configuration not given here. Cbz = O=C(OCc1ccccc1)*; ξNva = CCCC(N)C(=O)O

System: L1210 leukemia ip in BDF1 mice, survival T/C
Assay: NCI In Vivo Anticancer Drug Screen. Data for tumor model L1210 Leukemia (intraperitoneal) in B6D2F1 (BDF1) mice
Settings: endpoint: mean survival time, higher = longer survival
Outline: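 Transplanted-tumor mice were given test agent; controls received vehicle only. Survival readings from the two groups were divided (treated over control).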

[1] = dose: 100.0 mg/kg/injection, schedule: Q01DX001 (ip), vehicle: saline
[2] = dose: 200.0 mg/kg/injection, schedule: Q01DX001 (ip), vehicle: saline
[3] = dose: 400.0 mg/kg/injection, schedule: Q01DX001 (ip), vehicle: saline
[4] = dose: 100.0 mg/kg/injection, schedule: Q04DX003 (ip), vehicle: saline
[5] = dose: 200.0 mg/kg/injection, schedule: Q04DX003 (ip), vehicle: saline
[6] = dose: 400.0 mg/kg/injection, schedule: Q04DX003 (ip), vehicle: saline
[7] = dose: 100.0 mg/kg/injection, schedule: Q01DX001 (ip), vehicle: carboxymethylcellulose (CMC)
[8] = dose: 200.0 mg/kg/injection, schedule: Q01DX001 (ip), vehicle: carboxymethylcellulose (CMC)
[9] = dose: 400.0 mg/kg/injection, schedule: Q01DX001 (ip), vehicle: carboxymethylcellulose (CMC)
[10] = dose: 100.0 mg/kg/injection, schedule: Q01DX009 (ip), vehicle: saline
[11] = dose: 200.0 mg/kg/injection, schedule: Q01DX009 (ip), vehicle: saline
[12] = dose: 400.0 mg/kg/injection, schedule: Q01DX009 (ip), vehicle: saline
[13] = dose: 100.0 mg/kg/injection, schedule: Q01DX001 (ip), vehicle: saline with Tween-80
[14] = dose: 200.0 mg/kg/injection, schedule: Q01DX001 (ip), vehicle: saline with Tween-80
[15] = dose: 400.0 mg/kg/injection, schedule: Q01DX001 (ip), vehicle: saline with Tween-80
[16] = dose: 100.0 mg/kg/injection, schedule: Q01DX009 (ip), vehicle: saline with Tween-80
[17] = dose: 100.0 mg/kg/injection, schedule: Q04DX003 (ip), vehicle: saline with Tween-80
[18] = dose: 200.0 mg/kg/injection, schedule: Q01DX009 (ip), vehicle: saline with Tween-80
[19] = dose: 200.0 mg/kg/injection, schedule: Q04DX003 (ip), vehicle: saline with Tween-80
[20] = dose: 400.0 mg/kg/injection, schedule: Q04DX003 (ip), vehicle: saline with Tween-80

Measured: T/C

O=C1OC2CCCCC2/C1=C/OS(=O)(=O)C(F)(F)F (stereo not drawn)
inactive: dose: 12.5 mg/kg/injection, schedule: Q01DX009 (ip), vehicle: DMSO 105 % of control | dose: 25.0 mg/kg/injection, schedule: Q01DX009 (ip), vehicle: DMSO 103 % of control | dose: 50.0 mg/kg/injection, schedule: Q01DX009 (ip), vehicle: DMSO 110 % of control | dose: 100.0 mg/kg/injection, schedule: Q01DX009 (ip), vehicle: DMSO 110 % of control | dose: 200.0 mg/kg/injection, schedule: Q01DX009 (ip), vehicle: DMSO 117 % of control

COc1ccc(S(=O)(=O)O)cc1NC(=O)CC(=O)c1cccc([N+](=O)[O-])c1
inactive: [1] 97 % of control | [2] 95 % of control | [3] 100 % of control

COC1(OC)C2(Cl)C(Cl)=C(Cl)C1(Cl)C1C(=O)C=CC(=O)C12 (stereo not drawn)
inactive: dose: 100.0 mg/kg/injection, schedule: Q01DX009 (ip), vehicle: Klucel (hydroxypropylcellulose) (HPC) 104 % of control | dose: 100.0 mg/kg/injection, schedule: Q04DX003 (ip), vehicle: Klucel (hydroxypropylcellulose) (HPC) 100 % of control | [4] 98 % of control | dose: 200.0 mg/kg/injection, schedule: Q01DX009 (ip), vehicle: Klucel (hydroxypropylcellulose) (HPC) 96 % of control | dose: 200.0 mg/kg/injection, schedule: Q04DX003 (ip), vehicle: Klucel (hydroxypropylcellulose) (HPC) 98 % of control | [5] 93 % of control | dose: 400.0 mg/kg/injection, schedule: Q01DX009 (ip), vehicle: Klucel (hydroxypropylcellulose) (HPC) 98 % of control | dose: 400.0 mg/kg/injection, schedule: Q04DX003 (ip), vehicle: Klucel (hydroxypropylcellulose) (HPC) 96 % of control | [6] 101 % of control

COc1cccc2c1C(=O)c1c(O)c3c(c(O)c1C2=O)C[C@@](O)(/C(C)=N\NC(=O)CO)C[C@@H]3OC1CC(N)C(O)C(C)O1 (stereo partly drawn)
inactive: dose: 0.88 mg/kg/injection, schedule: Q04DX003 (ip), vehicle: saline 119 % of control | dose: 1.33 mg/kg/injection, schedule: Q04DX003 (ip), vehicle: saline 124 % of control | dose: 3.0 mg/kg/injection, schedule: Q04DX003 (ip), vehicle: saline 120 % of control | dose: 3.5 mg/kg/injection, schedule: Q01DX009 (ip), vehicle: saline 122 % of control | dose: 6.25 mg/kg/injection, schedule: Q01DX009 (ip), vehicle: saline 105 % of control | dose: 7.0 mg/kg/injection, schedule: Q01DX009 (ip), vehicle: saline 123 % of control | dose: 12.5 mg/kg/injection, schedule: Q01DX009 (ip), vehicle: saline 116 % of control | dose: 14.0 mg/kg/injection, schedule: Q01DX009 (ip), vehicle: saline 95 % of control and 99 % of control | dose: 14.0 mg/kg/injection, schedule: Q04DX003 (ip), vehicle: saline 108 % of control | dose: 16.0 mg/kg/injection, schedule: Q04DX003 (ip), vehicle: saline 112 % of control | dose: 25.0 mg/kg/injection, schedule: Q04DX003 (ip), vehicle: saline 102 % of control | dose: 32.0 mg/kg/injection, schedule: Q04DX003 (ip), vehicle: saline 111 % of control | dose: 50.0 mg/kg/injection, schedule: Q04DX003 (ip), vehicle: saline 91 % of control

CCN1CCC(c2ccccc2)(c2ccccc2)C1=N
inactive: dose: 75.0 mg/kg/injection, schedule: Q01DX001 (ip), vehicle: carboxymethylcellulose (CMC) 89 % of control

CC(=O)Nc1c(Cl)c(Cl)c(Cl)c2c1-c1ccc(Cl)cc1C2
inactive: [7] 92 % of control | [8] 101 % of control | [9] 97 % of control

CCOC(=O)c1c(C)c(C(=O)CC)c(C)n1C(=O)c1ccccc1
inactive: [1] 100 % of control | [2] 102 % of control | [3] 96 % of control

CCOC(=N)c1nnn(Cc2ccccc2)c1N
inactive: [1] 89 % of control | [2] 89 % of control

Cc1c(C(C)(C)C)cc(C(C)(C)C)c(O)c1[N+](=O)[O-]
inactive: [7] 93 % of control and 95 % of control | dose: 100.0 mg/kg/injection, schedule: Q04DX002 (ip), vehicle: carboxymethylcellulose (CMC) 90 % of control and 91 % of control | dose: 100.0 mg/kg/injection, schedule: Q04DX003 (ip), vehicle: carboxymethylcellulose (CMC) 97 % of control and 98 % of control | [8] 95 % of control and 99 % of control and 111 % of control | dose: 200.0 mg/kg/injection, schedule: Q04DX002 (ip), vehicle: carboxymethylcellulose (CMC) 87 % of control and 89 % of control | dose: 200.0 mg/kg/injection, schedule: Q04DX003 (ip), vehicle: carboxymethylcellulose (CMC) 96 % of control and 90 % of control | [9] 94 % of control and 101 % of control and 105 % of control | dose: 400.0 mg/kg/injection, schedule: Q04DX002 (ip), vehicle: carboxymethylcellulose (CMC) 96 % of control and 111 % of control | dose: 400.0 mg/kg/injection, schedule: Q04DX003 (ip), vehicle: carboxymethylcellulose (CMC) 96 % of control and 87 % of control

O/N=C(/Cc1ccccc1)CC(O)(C(F)(F)F)C(F)(F)F
inactive: [1] 110 % of control | [10] 95 % of control | [2] 95 % of control | [11] 102 % of control | [3] 89 % of control | [12] 95 % of control

COC(=O)CCC(NC(=O)c1ccc(NCc2cnc3nc(N)n(C)c(=O)c3n2)cc1)C(=O)OC (stereo not drawn)
inactive: [13] 106 % of control | [14] 104 % of control | [15] 101 % of control

O=C(Nc1ccc(Cl)cc1[N+](=O)[O-])Oc1ccc(Cl)cc1Cc1ccccc1
inactive: dose: 50.0 mg/kg/injection, schedule: Q04DX003 (ip), vehicle: saline with Tween-80 116 % of control | [13] 98 % of control | [16] 100 % of control and 87 % of control | dose: 100.0 mg/kg/injection, schedule: Q04DX002 (ip), vehicle: saline with Tween-80 98 % of control and 102 % of control | [17] 98 % of control and 92 % of control | [14] 93 % of control | [18] 94 % of control and 95 % of control | dose: 200.0 mg/kg/injection, schedule: Q04DX002 (ip), vehicle: saline with Tween-80 94 % of control and 98 % of control | [19] 102 % of control | [15] 91 % of control | dose: 400.0 mg/kg/injection, schedule: Q01DX009 (ip), vehicle: saline with Tween-80 94 % of control and 90 % of control | dose: 400.0 mg/kg/injection, schedule: Q04DX002 (ip), vehicle: saline with Tween-80 96 % of control and 98 % of control | [20] 102 % of control and 87 % of control

CCNCCNc1ccc(CO)c2sc3cc(Cl)ccc3c(=O)c12
inactive: dose: 25.0 mg/kg/injection, schedule: Q01DX009 (ip), vehicle: Klucel (hydroxypropylcellulose) (HPC) 99 % of control | dose: 50.0 mg/kg/injection, schedule: Q01DX009 (ip), vehicle: Klucel (hydroxypropylcellulose) (HPC) 100 % of control

CS(=O)(=O)NC(=O)NCCCl
inactive: dose: 100.0 mg/kg/injection, schedule: Q01DX001 (ip), vehicle: other 95 % of control | dose: 200.0 mg/kg/injection, schedule: Q01DX001 (ip), vehicle: other 95 % of control | dose: 400.0 mg/kg/injection, schedule: Q01DX001 (ip), vehicle: other 98 % of control

Clc1ccc(C#[C][Hg][C]#Cc2ccc(Cl)cc2)cc1
inactive: dose: 50.0 mg/kg/injection, schedule: Q01DX009 (ip), vehicle: saline with Tween-80 109 % of control | [16] 95 % of control | [18] 92 % of control

O=C1c2c(O)cccc2C(C2OC(CO)C(O)C(O)C2O)c2cc(CO)cc(O)c21 (stereo not drawn)
inactive: [1] 98 % of control | [2] 98 % of control | [3] 104 % of control

Nc1c(Cl)ncn2c(=O)n(Cc3ccccc3)nc12
inactive: [7] 96 % of control | [8] 105 % of control | [9] 105 % of control

C[n+]1cccc(O)c1
inactive: dose: 67.0 mg/kg/injection, schedule: Q04DX003 (ip), vehicle: saline 105 % of control | [10] 90 % of control | [4] 107 % of control | dose: 150.0 mg/kg/injection, schedule: Q04DX003 (ip), vehicle: saline 105 % of control | [11] 93 % of control | [5] 124 % of control | [12] 92 % of control | [6] 97 % of control

CN1C(=O)NC(C)(C)C1=O
inactive: [1] 99 % of control | [2] 97 % of control | [3] 94 % of control

CCCC(NC(=O)CNC(=O)CNC(=O)OCc1ccccc1)C(=O)OC (stereo not drawn) (Cbz-Gly-Gly-[ξNva]-OMe)
inactive: [17] 98 % of control | [19] 97 % of control | [20] 103 % of control
